Assay results as given in ChEMBL document CHEMBL4387793, “Styrenes from the Seeds of Atalantia monophylla” (J Nat Prod, 2019).
pIC50: −log10 of the molar value.

How the values were obtained:
[1] = Cytotoxicity against human KKU-M156 cells by SRB assay; type: functional, cell-based
HepG2 = experiment: Cytotoxicity against human HepG2 cells by SRB assay; type: functional, cell-based

Compound	pIC50 [1]	pIC50 (HepG2)
COc1cc(OC)c([C@H]2CC[C@H]2c2c(OC)cc(OC)cc2OC)c(OC)c1	> 5.00	> 5.00
COc1cc(OC)c2c(c1)O[C@@H](c1c(O)cc(OC)cc1OC)C[C@@H]2C	> 5.00	> 5.00
COc1cc(OC)c2c(c1)O[C@@H](c1c(OC)cc(OC)cc1OC)C[C@@H]2C	> 5.00	> 5.00
COc1cc(OC)c(/C=C/[C@H](C)c2c(OC)cc(OC)cc2OC)c(OC)c1	> 5.00	> 5.00
